Laboratory results from patent publication US20200306173A1, “LICORICE EXTRACT SYNERGY WITH MENTHOL FOR BREATH FRESHENING IN A CONFECTIONARY PRODUCT” (WM. WRIGLEY JR. COMPANY, priority 2017, published 2020).

Tested on: salivary bacteria
Experiment: Hydrogen sulfide production by salivary bacteria in pooled saliva mixed with L-cysteine, headspace GC with sulfur detector
Format: cell-based, human
Settings: Example 2, FIG. 2; menthol alone at 4 mg/ml as compared to 2 mg/ml
Description: • 1. About 10-20 ml of saliva was obtained from human subjects and mixed together prior to use. • 2. L-cysteine was dissolved in deionized (D.I.) water to produce 0.5% of cysteine solution. • 3. About 2.5 ml of pooled saliva was mixed with 2.5 ml of cysteine solution in a 20 ml headspace vial. • 4. The amount of hydrogen sulfide generated by salivary bacteria was analyzed by a gas chromatography (GC) equipped with a sulfur detector. Pooled saliva (50% dilution) and L-cysteine (0.25% in D.I. water) were used as the negative controls.
• 1. For evaluation of the headspace concentration of volatile sulfur compounds (VSCs), a gas chromatograph (GC) equipped with a sulfur chemiluminescence detector (SCD) was used. • 2. Each run was completed within 10 minutes. • 3. The level of H2S was analyzed by the GC-SCD by direct injection of 0.25 ml of headspace volume with an automated sampler.
Levels of H2S concentrations [μg/mL] were measured by gas […]. Licorice extract powder (Glycyrrhiza glabra) and menthol were each evaluated individually and then in combination. Saliva with cysteine served as a control reference. Licorice extract powder was sampled individually at 10 mg/ml and 20 mg/ml in a saliva-cysteine mixture. Menthol at 2 mg/ml was sampled individually. Three combinations of licorice and menthol were sampled, varying the amount of licorice extract.

**Q.** `CC1CCC(C(C)C)C(O)C1` (stereo not shown) [menthol] was tested. Which “H2S production (peak gas chromatography area)” value did it give?
**A.** Its value is “slight decrease of H2S production in later time points”.
